Values quoted from earlier work, collected in article PMC8273902 (Drug Design, Development and Therapy, 2021).
Read-outs that look alike come from different tables or passages of the source.

Conditions: humans

AUC0-t (20 mg) | CL/F (20 mg) | Cmax (20 mg) | Dose linearity | Food effect on PK properties | Food effect on PK properties (listed as tadalafil) | Compound | AUC0-t (100 mg) | Cmax (100 mg) | CL (CL, 50 mg, intravenous) | Food effect: reduction of AUC (systemic exposure) (high-fat meal) [%] | Tmax | Vd/F [L] | t1/2 [h]
– | – | – | – | – | – | CCCc1nn(C)c2c(=O)[nH]c(-c3cc(S(=O)(=O)N4CCN(C)CC4)ccc3OCC)nc12 [Sildenafil, sildenafil] | 1685 (100 mg) h·ng/mL | 560 (100 mg) ng/mL | 41 (CL, 50 mg, intravenous) L/h | 11 | 1 (0.5–2) h | >310 | 3 to 5
8066 (20 mg) h·ng/mL | 2.5 (20 mg) L/h | 378 (20 mg) ng/mL | Linear | No significant effect | not affected by food | CN1CC(=O)N2[C@H](c3ccc4c(c3)OCO4)c3[nH]c4ccccc4c3C[C@@H]2C1=O [Tadalafil, tadalafil] | – | – | – | – | 2 (0.5–6) h | 60 to 70 | –
